By EC50 is commonly meant the concentration needed to bring the measured effect to its halfway point.

Each structure is given as a SMILES string.

Assay [1] has as its target T1, ΔF508-CFTR (Homo sapiens, UniProt P13569, DEL508-508).
T1 construct: host or cells: CFBE41o-, doxycycline-inducible
In words: CFTR cell surface levels using HRP-tagged ΔF508-CFTR expressing CFBE cells, intrinsic corrector capacity. The format is cell-based. The following applies: for EC50: read-out: EC50. The method in brief: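 Here the cells express ΔF508-CFTR with horseradish peroxidase inserted in extracellular loop 4, so only rescued channel at the surface gives luminescent signal. Compounds act on their own, 20 h at the reduced temperature of 33 °C; values are percent activity relative to DMSO and a 3 μM corrector.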

Assay [2] deals with T1, ΔF508-CFTR. Put plainly: CFTR cell surface levels using HRP-tagged ΔF508-CFTR expressing CFBE cells, in the presence of a co-corrector. In kind it is cell-based. The following applies: HRP-tagged ΔF508-CFTR expressing CFBE cells, in the presence of 3 μM co-corrector; for EC50: read-out: EC50. The method, boiled down: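 Cells were seeded with 0.5 μg/mL doxycycline and held 68 h at 37 °C. Test compounds plus 3 μM co-corrector (final 0.1% DMSO) were then added for 20 h at 33 °C. Washed cells received HRP substrate, and luminescence was normalized between DMSO and 3 μM co-corrector controls.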

Where [3] appears, read: HRP-tagged ΔF508-CFTR expressing CFBE cells, intrinsic corrector capacity (no co-corrector), 33° C., 20 hours.
Setting [4] is: HRP-tagged ΔF508-CFTR CFBE41o- cells, compounds alone (intrinsic corrector capacity), 20 hours at 33° C., positive control 3 μM corrector.
Setting [5] is: HRP-tagged ΔF508-CFTR CFBE41o- cells, compounds alone (intrinsic corrector capacity), 20 hours at 33° C.

T1 sequence (P13569 with tags, fused parts or gaps DEL508-508): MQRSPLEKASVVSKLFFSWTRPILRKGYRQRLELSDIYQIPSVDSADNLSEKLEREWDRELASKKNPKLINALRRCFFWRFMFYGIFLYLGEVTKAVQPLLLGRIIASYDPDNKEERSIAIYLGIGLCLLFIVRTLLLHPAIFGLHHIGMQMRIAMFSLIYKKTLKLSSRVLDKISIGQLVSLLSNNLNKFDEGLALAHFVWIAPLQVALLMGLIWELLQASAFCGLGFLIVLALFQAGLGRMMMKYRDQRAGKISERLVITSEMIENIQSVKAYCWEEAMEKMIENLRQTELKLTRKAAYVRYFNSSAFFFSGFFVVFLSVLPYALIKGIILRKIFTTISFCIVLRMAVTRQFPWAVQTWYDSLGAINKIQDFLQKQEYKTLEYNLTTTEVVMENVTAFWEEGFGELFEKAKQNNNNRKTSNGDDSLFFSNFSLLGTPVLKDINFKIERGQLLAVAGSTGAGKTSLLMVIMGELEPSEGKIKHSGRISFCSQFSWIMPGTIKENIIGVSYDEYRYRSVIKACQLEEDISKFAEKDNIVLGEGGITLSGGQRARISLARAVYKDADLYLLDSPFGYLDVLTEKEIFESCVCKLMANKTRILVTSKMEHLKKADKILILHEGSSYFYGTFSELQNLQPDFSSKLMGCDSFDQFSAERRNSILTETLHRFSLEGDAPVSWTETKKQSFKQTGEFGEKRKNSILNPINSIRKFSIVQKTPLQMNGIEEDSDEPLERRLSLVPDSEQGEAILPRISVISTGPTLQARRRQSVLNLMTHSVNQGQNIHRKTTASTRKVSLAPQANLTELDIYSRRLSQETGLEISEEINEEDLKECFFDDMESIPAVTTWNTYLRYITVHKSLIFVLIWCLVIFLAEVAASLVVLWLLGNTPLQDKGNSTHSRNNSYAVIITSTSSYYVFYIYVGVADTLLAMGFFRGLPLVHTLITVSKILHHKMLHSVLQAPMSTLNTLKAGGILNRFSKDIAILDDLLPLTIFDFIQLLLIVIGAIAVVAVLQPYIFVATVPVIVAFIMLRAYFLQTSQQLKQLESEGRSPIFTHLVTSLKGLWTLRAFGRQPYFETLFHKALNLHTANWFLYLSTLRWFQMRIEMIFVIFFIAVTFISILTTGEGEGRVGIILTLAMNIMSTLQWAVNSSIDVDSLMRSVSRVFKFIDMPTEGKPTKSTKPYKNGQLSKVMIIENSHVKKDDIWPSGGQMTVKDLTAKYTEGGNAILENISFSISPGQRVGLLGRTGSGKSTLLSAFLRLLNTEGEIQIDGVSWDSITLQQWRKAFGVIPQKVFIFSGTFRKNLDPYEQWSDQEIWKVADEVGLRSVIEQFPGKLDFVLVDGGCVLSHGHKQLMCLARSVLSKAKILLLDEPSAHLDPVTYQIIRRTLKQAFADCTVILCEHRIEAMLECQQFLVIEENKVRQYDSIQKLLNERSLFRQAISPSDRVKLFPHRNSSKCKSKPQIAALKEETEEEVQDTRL

Consider `CN(C)CCOCCOc1cc(C(=O)O)nc2c1c(C1CCC1)nn2-c1ccccc1` [compound 614, 3-cyclobutyl-4-{2-[2-(dimethylamino)ethoxy]ethoxy}-1-phenyl-1H-pyrazolo[3,4-b]pyridine-6-carboxylic acid], for which, in assay [1] (setting [3]), the “% Activation” value was found to be 32.02% and the EC50 was 3330 nM. Besides, in assay [2], the “% Activation” value amounted to 176.9% and the half-maximal effective concentration (EC50) was determined as 3330 nM.
For the compound `C[C@H]1C[C@H](c2nn(-c3ccccc3)c3nc(C(=O)O)cc(-c4ccc(N5CCC(C#N)CC5)nc4)c32)C1` [compound 551, 4-[6-(4-cyanopiperidin-1-yl)pyridin-3-yl]-3-(trans-3-methylcyclobutyl)-1-phenyl-1H-pyrazolo[3,4-b]pyridine-6-carboxylic acid], in assay [1] (setting [3]), the “% Activation” value is reported as 223.1% and the EC50 was 370 nM. In assay [2], the “% Activation” value was 424.35% and the EC50 was determined as 87.2 nM.
On to `CC(C)c1nn(-c2cc(Cl)ccn2)c2nc(C(=O)O)cc(-c3ccc(N4CCOCC4)cc3)c12` [compound 229, 1-(4-chloropyridin-2-yl)-4-[4-(morpholin-4-yl)phenyl]-3-(propan-2-yl)-1H-pyrazolo[3,4-b]pyridine-6-carboxylic acid], for which the “% Activation” value in assay [1] (setting [4]) was found to be 130.65%; in assay [2] it was 298%. Besides, the results for the EC50 in assay [1] (setting [5]) and in assay [2] were 2150 nM and 1560 nM, respectively.
`CCN(CC)C(=O)C1CCCN(c2cc(C(=O)O)nc3c2c(C2CCC2)nn3-c2ccccc2)C1` (centres unmarked) [compound 500, 3-cyclobutyl-4-[3-(diethylcarbamoyl)piperidin-1-yl]-1-phenyl-1H-pyrazolo[3,4-b]pyridine-6-carboxylic acid]: in assay [1] (setting [3]), the “% Activation” value is listed as 132.8% and the EC50 was 467 nM. Also, in assay [2], the “% Activation” value is 289% and the EC50 was 296 nM.
For `CC(C)c1nn(-c2cccc(C(F)(F)F)c2)c2nc(C(=O)O)cc(-c3cnc(N(C)C4CCOCC4)nc3)c12` [compound 281, 4-{2-[methyl(oxan-4-yl)amino]pyrimidin-5-yl}-3-(propan-2-yl)-1[3-(trifluoromethyl)phenyl]-1H-pyrazolo[3,4-b]pyridine-6-carboxylic acid], the “% Activation” value in assay [1] (setting [4]) stood at 226.7%; in assay [2], 425.85%. Further, the EC50 in assay [1] (setting [5]) is 1290 nM; in assay [2] it was 908 nM.
As for `CC(=O)N1CCC(Oc2cc(C(=O)O)nc3c2c(C2CCC2)nn3-c2ccccc2)CC1` [compound 612, 4-[(1-acetylpiperidin-4-yl)oxy]-3-cyclobutyl-1-phenyl-1H-pyrazolo[3,4-b]pyridine-6-carboxylic acid], in assay [1] (setting [3]), the “% Activation” value is given as 109.5% and the EC50 was 3330 nM. Besides, in assay [2], the “% Activation” value is on record as 266.9% and the EC50 turned out to be 1180 nM.
With `CC(C)c1nn(-c2ccc(F)c(F)c2)c2nc(C(=O)O)cc(-c3ccc(N4CCC(C#N)CC4)nc3)c12` [compound 279, 4-[6-(4-cyanopiperidin-1-yl)pyridin-3-yl]-1-(3,4-difluorophenyl)-3-(propan-2-yl)-1H-pyrazolo[3,4-b]pyridine-6-carboxylic acid], the “% Activation” value in assay [1] (setting [4]) was 257.8%; in assay [2] it was 427.65%. For the same compound, the EC50 in assay [1] (setting [5]) is 900 nM; in assay [2] it was 499 nM.
The like results for `CC(C)c1nn(-c2cccc(F)c2)c2nc(C(=O)O)cc(-c3ccc(N(C)C4CCOCC4)cc3)c12` [compound 284, 1-(3-fluorophenyl)-4-{4-[nethyl(oxan-4-yl)amino]phenyl}-3-(propan-2-yl)-1H-pyrazolo[3,4-b]pyridine-6-carboxylic acid] were, in that order, 240.8%, 435.23%, 501 nM and 282 nM.
On to `O=C(O)c1cc(N2CCC(N3CCOCC3)CC2)c2c(C3CCC3)nn(-c3ccnc(O)c3)c2n1` [compound 885, 3-cyclobutyl-1-(2-hydroxypyridin-4-yl)-4-[4-(morpholin-4-yl)piperidin-1-yl]-1H-pyrazolo[3,4-b]pyridine-6-carboxylic acid], for which, in assay [1] (setting [3]), the “% Activation” value was found to be 66.2% and the EC50 stood at 3340 nM. Also, in assay [2], the “% Activation” value came to 255.5% and the EC50 turned out to be 2450 nM.
Turning to `CC(C)c1nn(C2CCCCC2)c2nc(C(=O)O)cc(-c3cn[nH]c3)c12` [compound 363, 1-cyclohexyl-3-(propan-2-yl)-4-(1H-pyrazol-4-yl)-1H-pyrazolo[3,4-b]pyridine-6-carboxylic acid], the “% Activation” value in assay [1] (setting [4]) is reported as 56.625%; in assay [2], 187.2%. For the same compound, the figures for the EC50 in assay [1] (setting [5]) and in assay [2] were 2470 nM and 2330 nM, respectively.
The like results for `CC(=O)N1CCC(n2nc(C(C)C)c3c(-c4ccc(N5CCOCC5)cc4)cc(C(=O)O)nc32)CC1` [compound 71, 1-(1-acetylpiperidin-4-yl)-4-[4-(morpholin-4-yl)phenyl]-3-(propan-2-yl)-1H-pyrazolo[3,4-b]pyridine-6-carboxylic acid] were, in that order, 17.23%, 126.8%, > 10000 nM and > 10000 nM.
On to `Cc1ccc(-n2nc(C3CCC3)c3c(-c4ccc(N5CCOCC5)cc4)cc(C(=O)O)nc32)cc1F` [compound 355, 3-cyclobutyl-1-(3-fluoro-4-methylphenyl)-4-[4-(morpholin-4-yl)phenyl]-1H-pyrazolo[3,4-b]pyridine-6-carboxylic acid], for which the “% Activation” value in assay [1] (setting [4]) was 180.03%; in assay [2], 360.63%. For the same compound, the EC50 in assay [1] (setting [5]) came out at 740 nM; in assay [2] it was 556 nM.
Regarding `O=C(O)c1cc(N2CCC(CN3CCC4(COC4)C3)CC2)c2c(C3CCC3)nn(-c3ccccc3)c2n1` [compound 842, 3-cyclobutyl-4-{4-[(2-oxa-6-azaspiro[3.4]octan-6-yl)methyl]piperidin-1-yl}-1-phenyl-1H-pyrazolo[3,4-b]pyridine-6-carboxylic acid], in assay [1] (setting [3]), the “% Activation” value is 162.5% and the EC50 stood at 628 nM. For the same compound, in assay [2], the “% Activation” value stood at 370% and the EC50 was determined as 582 nM.
The like results for `O=C(O)c1cc(OC2CCCCCC2)c2c(C3CCC3)nn(-c3ccccc3)c2n1` [compound 648, 3-cyclobutyl-4-(cycloheptyloxy)-1-phenyl-1H-pyrazolo[3,4-b]pyridine-6-carboxylic acid] were, in that order, 90.745%, 263 nM, 296.1% and 203 nM.
The like results for `CCCN1CCCN(c2cc(C(=O)O)nc3c2c(C(C)C)nn3-c2ccc(F)cc2)CC1` [compound 766, 1-(4-fluorophenyl)-3-(propan-2-yl)-4-(4-propyl-1,4-diazepan-1-yl)-1H-pyrazolo[3,4-b]pyridine-6-carboxylic acid] were, in that order, 54.3%, 1670 nM, 213.4% and 1180 nM.
Consider `COCCN(C)c1cccc(-n2nc(C(C)C)c3c(-c4ccc(N5CCOCC5)cc4)cc(C(=O)O)nc32)c1` [compound 172, 1-{3-[(2-methoxyethyl)(methyl)amino]phenyl}-4[4-(morpholin-4-yl)phenyl]-3-(propan-2-yl)-1H-pyrazolo[3,4-b]pyridine-6-carboxylic acid], for which the results for the “% Activation” value in assay [1] (setting [4]) and in assay [2] were 339.33% and 513.1%, respectively. For the same compound, the EC50 came out at 615 nM in assay [1] (setting [5]) and 480 nM in assay [2].
Consider `CN(c1cc(C(=O)O)nc2c1c(C1CCC1)nn2-c1ccccc1)[C@H]1C[C@@H](O)C1` [compound 533, 3-cyclobutyl-4-[(cis-3-hydroxycyclobutyl)(methyl)amino]-1-phenyl-1H-pyrazolo[3,4-b]pyridine-6-carboxylic acid], for which the entries for the “% Activation” value in assay [1] (setting [3]) and in assay [2] were 114.5% and 315.85%, respectively. For the same compound, the EC50 in assay [1] (setting [3]) stood at 3210 nM; in assay [2], 1230 nM.
`O=C(O)c1cc(-c2ccc(N3CCOCC3)cc2)c2c(C3CCC3)nn(-c3cc(F)cc(F)c3)c2n1` [compound 353, 3-cyclobutyl-1-(3,5-difluorophenyl)-4-[4-(morpholin-4-yl)phenyl]-1H-pyrazolo[3,4-b]pyridine-6-carboxylic acid]: the “% Activation” value worked out at 224.1% in assay [1] (setting [4]) and 438.65% in assay [2]. Also, the EC50 in assay [1] (setting [5]) came to 506 nM; in assay [2], 459 nM.
`CC(C)Oc1nn(C2CCCCC2)c2nc(C(=O)O)cc(-c3ccc(CN4CCN(C5CC5)CC4)cc3)c12` [compound 884, 1-cyclohexyl-4-{4-[(4-cyclopropylpiperazin-1-yl)methyl]phenyl}-3-[(propan-2-yl)oxy]-1H-pyrazolo[3,4-b]pyridine-6-carboxylic acid]: in assay [1] (setting [3]), the “% Activation” value stood at 140.6% and the EC50 was determined as 298 nM. Also, in assay [2], the “% Activation” value is listed as 377.6% and the EC50 stood at 214 nM.
Taken in the same sequence, the figures for `CCOCCN1CCN(C2CCN(c3cc(C(=O)O)nc4c3c(C(C)C)nn4-c3ccc(F)cc3)CC2)CC1` [compound 745, 4-{4-[4-(2-ethoxyethyl)piperazin-1-yl]piperidin-1-yl}-1-(4-fluorophenyl)-3-(propan-2-yl)-1H-pyrazolo[3,4-b]pyridine-6-carboxylic acid] were 239.3%, 573 nM, 457.5% and 191 nM.

(Values after US9796711B2, “Substituted pyrazolo[3,4-b]pyridin-6-carboxylic acids and method of use” (AbbVie S.àr.l., priority 2015, dated 2017).)
